Tested on: SMN2-luciferase reporter
Assay: SMN2-luciferase reporter qHTS assay
Type: cell-based, human
Design: key to Curve Class: A curve class of 1.1 is a full agonist/antagonist; a curve class of 4 indicates the compound is inactive
Conditions: for Curve Class: agonist/antagonist character of the concentration-response, lower values = more significant concentration-response; for Increased SMN2 activity: percent increase (or decrease) in SMN2 levels compared to control in which no test compound is added
From the text: A cell-based quantitative high throughput screening (qHTS) assay is used to identify compounds able to increase SMN production. The assay uses a SMN2-luciferase reporter to determine if exon 7 of the SMN gene is expressed, which correlates with increased full-length SMN production from the SMN2 gene. As controls, a homologue SMN1-luciferase reporter cell line looks for variations in expression of the SMN1 gene and a cell line with just the luciferase reporter looks at the capacity of the compounds to inhibit luciferase. In addition, increments in SMN production by lead compounds were confirmed by Western-Blot analysis using SMA patient fibroblasts.
For the qHTS assay, concentration-response profiles are generated at the primary-screen level for each library compound to minimize the number of false positives. A dilution series consisting of seven points separated by five-fold concentration differences is prepared for each compound, yielding a concentration series that spans a range of about four orders of magnitude, for example from a high concentration of 50 micromolar to a low concentration of 3.2 nanomolar and providing adequate data for fitting to a Hill equation. For the assay, the SMN2 reporter cell line was plated at a density of ˜2000 cells/well in complete media (phenol red free DMEM, 10% detacl calf serum, and 1× pen/strep), in 1536 well white solid bottom tissue culture treated plates (Greiner). Cells were allowed to adhere and recover at 37 C in 5% CO2 for 10-12 hours. Compounds were added to the plates by a Pintool (Kalypsys) at a volume of 23 nl/well. Cells were incubated in the presence of compounds for 2 days at 37 C in 5% CO2. In order to quantify luciferase reporter levels, 3 ul/well of OneGlo (Promega) was added to each well and incubated at room temperature for 10 minutes. Luminescence from the reporter in each well is measured using a Viewlux CCD based imager (Perkin Elmer) with an integration time of 30 seconds and a binning of 2× in luminescence mode. Sodium butyrate was used as the positive control compound for luciferase induction and a column of 32 wells of 9.2 mM compound on each plate was used to monitor assay performance.
The SMN reporters used herein are modified from those previously described (M. L. Zhang, C. L. Lorson, E. J. Androphy and J. Zhou, An in vivo reporter system for measuring increased inclusion of exon 7 in SMN2 mRNA: potential therapy of SMA, Gene Ther 8 (2001), pp. 1532-1538.)
The sequence of the SMN1 reporter vector used herein is given in SEQ ID NO.:1, while that of the SMN2 reporter vector is given in SEQ ID NO.:2.
Each of the SMN reporters is constructed from three separate DNA fragments: (1) an SMN promotor sequence from the transcriptional reporter p 4.0T (SMN1) or p3.4C (SMN2) described in Monani, et al. Biochimica et Biophysica Acta 1445 (1999) 330-336; (2) a modification of the firefly luciferase splicing reporter for SMN1 or SMN2 described by Zhang et al; and (3) a 744 bp SMN cDNA fragment.
The 3.7 kB SMN1 promoter fragment is obtained by restriction of p4.0T with BglII and SacII. A 3.4 kB SMN2 promoter fragment is obtained by restriction of p3.4C with KpnI and SacII; a 300 bp BglII/KpnI fragment from p4.0T is then added to the 3.4 kB SMN2 promoter fragment to yield the final 3.7 kB SMN2 promoter fragment.
The modified SMN1 and SMN2 firefly luciferase splicing reporters are obtained by removing 4 kB of intron 6 in the original reporter system by restriction with SmaI/Swa followed by religation of the reporter. A 4 kB luciferase splicing reporter is then obtaind by digestion with XhoI and NotI.
Ths SMN cDNA fragment is obtained by generating the productof a polymerase chain reaction (PCR) on a cDNA preparation using […] (SEQ ID NO:3) as the forward primer and Tatctcgagtggtccagaaggaaatggaggcagcc (SEQ ID NO:4) as the reverse primer. The PCR product is then digested with XhoI and SacII. […]

`NC(=O)C1CCN(c2ncc(-c3ccc(Br)cc3)s2)CC1` [Example 87, 1-(5-(4-Bromophenyl)Thiazol-2-yl)Piperidine-4-Carboxamide] was tested, and the “Curve Class” value was 1.1 and the “Increased SMN2 activity” value was 598.7%.

With `NC(=O)C1CCN(c2ncc(-c3ccc4c(c3)OCO4)s2)CC1` [Example 125, 1-(5-(Benzo[D][1,3]Dioxol-5-yl)Thiazol-2-yl)Piperidine-4-Carboxamide] the “Curve Class” value was 1.1 and the “Increased SMN2 activity” value was 589.875%.

In the case of `NC(=O)C1CCN(c2nc(-c3cccc([N+](=O)[O-])c3)cs2)CC1` [Example 37, 1-(4-(3-Nitrophenyl)Thiazol-2-yl)Piperidine-4-Carboxamide], the “Curve Class” value is reported as 2.4 and the “Increased SMN2 activity” value is reported as 20.29%.

With `CN(C)c1cccc(-c2nnc(N3CCC(C(N)=O)CC3)s2)c1` [Example 132, 1-(5-(3-(Dimethylamino)Phenyl)-1,3,4-Thiadiazol-2-yl)Piperidine-4-Carboxamide] the “Curve Class” value was 1.1 and the “Increased SMN2 activity” value was 448.5%.

For `NC(=O)C1CCN(c2nc(-c3cccc(C(F)(F)F)c3)cs2)CC1` [Example 81, 1-(4-(3-(Trifluoromethyl)Phenyl)Thiazol-2-yl)Piperidine-4-Carboxamide], the “Curve Class” value was 2.2 and the “Increased SMN2 activity” value was 100%.

For `NC(=O)C1CCN(c2ncc(-c3cccc(N4CCCC4)c3)s2)CC1` [Example 137, 1-(5-(3-(Pyrrolidin-1-yl)Phenyl)Thiazol-2-yl)Piperidine-4-Carboxamide], the “Curve Class” value was 1.1 and the “Increased SMN2 activity” value was 685.1%.

For `COc1ccc(-c2csc(N3CCC(C(N)=O)CC3)n2)cc1` [Example 25, 1-(4-(4-Methoxyphenyl)Thiazol-2-yl)Piperidine-4-Carboxamide], the “Curve Class” value was 2.1 and the “Increased SMN2 activity” value was 209.1%.

In the case of `CC(=O)N1CCN(c2nc(-c3ccc(Br)cc3)cs2)CC1` [Example 110, 1-(4-(4-(4-Bromophenyl)Thiazol-2-yl)Piperazin-1-yl)Ethanone], the “Curve Class” value is reported as 1.1 and the “Increased SMN2 activity” value is reported as 234.5%.

`NC(=O)C1CCN(c2nccc(-c3ccc(Br)cc3)n2)CC1` [Example 80, 1-(4-(4-Bromophenyl)Pyrimidin-2-yl)Piperidine-4-Carboxamide] was tested, and the “Curve Class” value was 1.1 and the “Increased SMN2 activity” value was 387%.

With `CC(=O)c1cccc(-c2csc(N3CCC(C(N)=O)CC3)n2)c1` [Example 55, 1-(4-(3-Acetylphenyl)Thiazol-2-yl)Piperidine-4-Carboxamide] the “Curve Class” value was 1.1 and the “Increased SMN2 activity” value was 356%.

For `NC(=O)C1CCN(c2nc(-c3ccc4occc(=O)c4c3)cs2)CC1` [Example 50, 1-(4-(4-Oxo-4H-Chromen-6-yl)Thiazol-2-yl)Piperidine-4-Carboxamide], the “Curve Class” value was 2.1 and the “Increased SMN2 activity” value was 589.68%.

`CN(C)c1cccc(-c2cnc(N3CCC(C(N)=O)CC3)s2)c1` [Example 88, 1-(5-(3-(Dimethylamino)Phenyl)Thiazol-2-yl)Piperidine-4-Carboxamide] was tested, and the “Curve Class” value was 1.1 and the “Increased SMN2 activity” value was 550.44%.

With `COc1cccc(-c2csc(N3CCC(C(N)=O)CC3)n2)c1` [Example 35, 1-(4-(3-Methoxyphenyl)Thiazol-2-yl)Piperidine-4-Carboxamide] the “Curve Class” value was 1.1 and the “Increased SMN2 activity” value was 357%.

In the case of `NC(=O)C1CCN(c2nc(-c3ccc4ccccc4c3)cs2)CC1` [Example 56, 1-(4-(Naphthalen-2-yl)Thiazol-2-yl)Piperidine-4-Carboxamide], the “Curve Class” value is reported as 1.1 and the “Increased SMN2 activity” value is reported as 162%.

In the case of `NC(=O)C1CCN(c2nc(-c3cccs3)cs2)CC1` [Example 51, 1-(4-(Thiophen-2-yl)Thiazol-2-yl)Piperidine-4-Carboxamide], the “Curve Class” value is reported as 2.2 and the “Increased SMN2 activity” value is reported as 50.93%.

In the case of `NC(=O)C1CCN(c2ncc(-c3cccc(N4CCOCC4)c3)s2)CC1` [Example 139, 1-(5-(3-Morpholinophenyl)Thiazol-2-yl)Piperidine-4-Carboxamide], the “Curve Class” value is reported as 1.1 and the “Increased SMN2 activity” value is reported as 275.2%.

Source: patent US20130096160A1, “ARYLTHIAZOLYL PIPERIDINES AND RELATED COMPOUNDS AS MODULATORS OF SURVIVAL MOTOR NEURON (SMN) PROTEIN PRODUCTION” (Secretary, Department of Health and Human Services, priority 2010, published 2013)
